IC50 data for 23 molecules are collected here from US20250346592A1 (Celgene Corporation, priority 2022, published 2025).

Usually IC50 stands for the concentration that inhibits the measured activity by half.

Each structure is given as a SMILES string.

hPAD4 enzyme, sequence (Q9UM07 whole entry): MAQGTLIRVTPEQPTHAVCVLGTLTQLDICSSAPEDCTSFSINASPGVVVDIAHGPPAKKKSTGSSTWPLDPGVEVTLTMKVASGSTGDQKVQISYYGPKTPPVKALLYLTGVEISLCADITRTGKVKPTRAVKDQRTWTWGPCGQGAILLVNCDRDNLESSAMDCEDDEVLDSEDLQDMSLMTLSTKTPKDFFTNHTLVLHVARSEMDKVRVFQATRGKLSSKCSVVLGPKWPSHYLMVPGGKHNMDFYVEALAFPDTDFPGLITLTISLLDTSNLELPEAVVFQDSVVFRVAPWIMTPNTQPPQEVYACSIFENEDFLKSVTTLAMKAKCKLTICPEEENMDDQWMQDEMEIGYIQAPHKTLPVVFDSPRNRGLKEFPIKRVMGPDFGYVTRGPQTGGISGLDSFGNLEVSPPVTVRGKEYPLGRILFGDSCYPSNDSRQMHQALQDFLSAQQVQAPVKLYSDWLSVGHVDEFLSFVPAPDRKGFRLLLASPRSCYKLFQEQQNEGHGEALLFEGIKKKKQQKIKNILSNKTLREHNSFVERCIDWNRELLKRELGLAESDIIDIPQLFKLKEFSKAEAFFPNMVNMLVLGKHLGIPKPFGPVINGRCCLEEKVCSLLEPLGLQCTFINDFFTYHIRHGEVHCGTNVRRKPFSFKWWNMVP

This test has as its target hPAD4 enzyme (Homo sapiens (Human), UniProt Q9UM07). As to the kind of experiment: RFMS2 assay (RapidFire mass spectrometry, TSTGGRQGSHH peptide substrate). Type of test: biochemical. The settings on record: 35 nM recombinant human PAD4, 500 μM TSTGGRQGSHH peptide, 30 minutes at room temperature; read-out: RFMS 2 IC50. As to the method:
Stock compounds were dissolved and stored in 100% DMSO. Compound solutions were prepared via serial dilution at 3-fold intervals in DMSO with top compound concentration at 20 μM in each assay. 0.25 μl of compound solution was transferred from the compound plate to the assay plate by using an acoustic dispenser.
• Total reaction volume: 25 μl • Assay buffer: […] pH 7.4, 200 mM NaCl, 2 mM CaCl2, 5 mM DTT • 35 nM recombinant human PAD4 • 500 μM TSTGGRQGSHH peptide • 1.2% DMSO • Stop solution: 10% formic acid
Reaction mixtures were incubated at room temperature for 30 minutes. 10 μl each of the reaction mixtures was then mixed with 40 μl of 10% formic acid in a microtiter plate. The plate was frozen at −80° C. before shipping out on dry ice for RapidFire mass spectroscopy analysis.
Thawed samples were loaded onto the Rapid Fire 300 system (Agilent) wherein they were first sipped for 250 ms and then loaded onto a Agilent “C” (C18) cartridge using a mobile phase of water containing 0.09% formic acid/0.01% trifluoroacetic acid for 3000 ms desalting flowing at a rate of 1.5 ml/min. Once the samples were loaded and washed, a mobile phase of acetonitrile containing 0.09% formic acid/0.01% trifluoroacetic acid was used to elute the samples directly onto a Sciex API4000 triple quadrupole mass spectrometer for 3000 ms at a flow rate of 1.25 ml/min.
MRM transitions for substrate and product were monitored in positive ESI mode at m/z=562.3/969.7 and m/z=562.8/541.3 respectively. The dwell time for each transition was set at 100 ms, and the ESI voltage was used at 5500 with a source temperature of 650° C. Extracted ion peaks for each transition were integrated using the Rapid Fire Integrator software.
Compounds having an activity designated as “A” provided an IC50≤10 nM; compounds having an activity designated as “B” provided an IC50 11-100 nM; compounds having an activity designated as “C” provided an IC50 101-500 nM; compounds having an activity designated as “D” provided an IC50 501-1000 nM; compounds having an activity designated as “E” provided an IC50>1000 nM.
Turning to `Cn1c(-c2cc3cccc(OCc4ccno4)c3n2CC2CC2)nc2cc3c(cc21)CCN(C[C@H](N)CF)C3=O` [Example 175, (S)-6-(2-amino-3-fluoropropyl)-2-(1-(cyclopropyl-methyl)-7-(isoxazol-5-ylmethoxy)-1H-indol-2-yl)-1-methyl-1,6,7,8-tetrahydro-5H-imidazo[4,5-g] isoquinolin-5-one], the IC50 lay within 0.101 to 0.5 µM.
For the molecule `COc1nccc2cc(-c3nc4cc5c(cc4n3C)CCN(C[C@H](N)CF)C5=O)n(CC3CC3)c12` [Example 54, (S)-6-(2-amino-3-fluoropropyl)-2-(1-(cyclopropylmethyl)-7-methoxy-1H-pyrrolo[2,3-c]pyridin-2-yl)-1-methyl-1,6,7,8-tetrahydro-5H-imidazo[4,5-g]isoquinolin-5-one], the IC50 fell in the range of 0.501 to 1 µM.
As for `COCCn1c(-c2nc3cc4c(cc3n2C)CCN(C[C@H](N)CF)C4=O)cc2ccc(Cl)nc21` [Example 104, (S)-6-(2-amino-3-fluoropropyl)-2-(6-chloro-1-(2-methoxyethyl)-1H-pyrrolo[2,3-b]pyridin-2-yl)-1-methyl-1,6,7,8-tetrahydro-5H-imidazo[4,5-g]isoquinolin-5-one], the IC50 lay within 0.501 to 1 µM.
For the molecule `Cn1c(-c2cc3cccc(N4CCOCC4)c3n2CC2CC2)nc2cc3c(cc21)CCN(C[C@H](N)CF)C3=O` [Example 70], the half-inhibitory concentration (IC50) is above 1 µM.
For `Cn1c(-c2cc3ccccc3n2CC2CC2)nc2cc3c(cc21)CCN(CC1CNCCN1)C3=O` (centres unmarked) [Example 8, 2-(1-(cyclopropylmethyl)-1H-indol-2-yl)-1-methyl-6-(piperazin-2-ylmethyl)-1,6,7,8-tetrahydro-5H-imidazo[4,5-g]isoquinolin-5-one], the 50% inhibitory concentration (IC50) is above 1 µM.
For `C[C@@H](O)CN1CCc2cc3c(cc2C1=O)nc(-c1cc2ccccc2n1CC1CC1)n3C` [Example 85, (R)-2-(1-(cyclopropylmethyl)-1H-indol-2-yl)-6-(2-hydroxypropyl)-1-methyl-1,6,7,8-tetrahydro-5H-imidazo[4,5-g]isoquinolin-5-one], the 50% inhibitory concentration (IC50) is above 1 µM.
In the case of `C[C@@H](N)CN1CCc2cc3c(cc2C1=O)nc(-c1cc2ccc(C4COC4)cc2n1CC1CC1)n3C` [Example 42, (R)-6-(2-aminopropyl)-2-(1-(cyclopropylmethyl)-6-(oxetan-3-yl)-1H-indol-2-yl)-1-methyl-1,6,7,8-tetrahydro-5H-imidazo[4,5-g]isoquinolin-5-one], the IC50 lay in the range of 0.501 to 1 µM.
The result for `Cn1c(-c2cc3cccc(OCCC4CNC(=O)C4)c3n2CC2CC2)nc2cc3c(cc21)CCN(C[C@H](N)CF)C3=O` (single isomer, unassigned) [Example 178] reads 0.101 to 0.5 µM.
The result for `Cn1c(-c2cc3cccc(OCC4CC(F)(F)C(=O)N4)c3n2CC2CC2)nc2cc3c(cc21)CCN(C[C@H](N)CF)C3=O` (stereo partly drawn) [Example 185, 6-((S)-2-amino-3-fluoropropyl)-2-(1-(cyclopropylmethyl)-7-((4,4-difluoro-5-oxopyrrolidin-2-yl)methoxy)-1H-indol-2-yl)-1-methyl-1,6,7,8-tetrahydro-5H-imidazo[4,5-g]isoquinolin-5-one] reads 0.101 to 0.5 µM; that for `Cc1cccc2cc(-c3nc4cc5c(cc4n3C)CCN(C[C@@H](C)N)C5=O)n(CC3CCC3)c12` [Example 89, (R)-6-(2-aminopropyl)-2-(1-(cyclobutylmethyl)-7-methyl-1H-indol-2-yl)-1-methyl-1,6,7,8-tetrahydro-5H-imidazo[4,5-g]isoquinolin-5-one], 0.101 to 0.5 µM.
Next, `Cc1ncnn1CCOc1cccc2cc(-c3nc4cc5c(cc4n3C)CCN(C[C@H](N)CF)C5=O)n(CC3CC3)c12` [Example 163, (S)-6-(2-amino-3-fluoropropyl)-2-(1-(cyclopropylmethyl)-7-(2-(5-methyl-1H-1,2,4-triazol-1-yl)ethoxy)-1H-indol-2-yl)-1-methyl-1,6,7,8-tetrahydro-5H-imidazo[4,5-g]isoquinolin-5-one]: 0.101 to 0.5 µM.
On to `COc1cccc2cc(-c3nc4cc5c(cc4n3C)CCN(C[C@H](N)CF)C5=O)n(C[C@@H]3CCCO3)c12` [Example 133, 6-((S)-2-amino-3-fluoropropyl)-2-(7-methoxy-1-(((S)-tetrahydrofuran-2-yl)methyl)-1H-indol-2-yl)-1-methyl-1,6,7,8-tetrahydro-5H-imidazo[4,5-g]isoquinolin-5-one], for which the IC50 lay in the range of 0.101 to 0.5 µM.
Next, `Cc1nc(C)n(CCOc2cccc3cc(-c4nc5cc6c(cc5n4C)CCN(C[C@H](N)CF)C6=O)n(CC4CC4)c23)n1` [Example 162, (S)-6-(2-amino-3-fluoropropyl)-2-(1-(cyclopropyl-methyl)-7-(2-(3,5-dimethyl-1H-1,2,4-triazol-1-yl)ethoxy)-1H-indol-2-yl)-1-methyl-1,6,7,8-tetrahydro-5H-imidazo[4,5-g]isoquinolin-5-one]: 0.101 to 0.5 µM; `C[C@@H](N)CN1CCc2cc3c(cc2C1=O)nc(-c1cc2ccccc2n1Cc1ccncc1)n3C` [Example 81, (R)-6-(2-aminopropyl)-1-methyl-2-(1-(pyridin-4-ylmethyl)-1H-indol-2-yl)-1,6,7,8-tetrahydro-5H-imidazo[4,5-g]isoquinolin-5-one]: above 1 µM; `Cn1c(-c2cc3cccc(OCCc4ccon4)c3n2CC2CC2)nc2cc3c(cc21)CCN(C[C@H](N)CF)C3=O` [Example 170, (S)-6-(2-amino-3-fluoropropyl)-2-(1-(cyclopropyl-methyl)-7-(2-(isoxazol-3-yl)ethoxy)-1H-indol-2-yl)-1-methyl-1,6,7,8-tetrahydro-5H-imidazo[4,5-g] isoquinolin-5-one]: 0.101 to 0.5 µM.
With `COc1cccc2cc(-c3nc4cc5c(cc4n3C)CCN(C[C@H](N)CF)C5=O)n(Cc3ncno3)c12` [Example 120, (S)-2-(1-((1,2,4-oxadiazol-5-yl)methyl)-7-methoxy-1H-indol-2-yl)-6-(2-amino-3-fluoropropyl)-1-methyl-1,6,7,8-tetrahydro-5H-imidazo[4,5-g]isoquinolin-5-one], the IC50 lay within 0.101 to 0.5 µM.
The result for `COc1ccc2cc(-c3nc4cc5c(cc4n3C)CCN(C[C@H](N)CF)C5=O)n(CC3CC3)c2c1` [Example 50, (S)-6-(2-amino-3-fluoropropyl)-2-(1-(cyclopropylmethyl)-6-methoxy-1H-indol-2-yl)-1-methyl-1,6,7,8-tetrahydro-5H-imidazo[4,5-g]isoquinolin-5-one] reads 0.101 to 0.5 µM; that for `COc1ccc2cc(-c3nc4cc5c(cc4n3C)CCN(C[C@@H](C)N)C5=O)n(CC3CC3)c2n1` [Example 44, (R)-6-(2-aminopropyl)-2-(1-(cyclopropylmethyl)-6-methoxy-1H-pyrrolo[2,3-b]pyridin-2-yl)-1-methyl-1,6,7,8-tetrahydro-5H-imidazo[4,5-g]isoquinolin-5-one], 0.101 to 0.5 µM; that for `Cn1c(-c2cc3ccc(C(=O)O)cc3n2CC2CC2)nc2cc3c(cc21)CCN(C[C@H](N)CF)C3=O` [Example 67, (S)-2-(6-(2-amino-3-fluoropropyl)-1-methyl-5-oxo-5,6,7,8-tetrahydro-1H-imidazo[4,5-g]isoquinolin-2-yl)-1-(cyclopropylmethyl)-1H-indole-6-carboxylic acid], above 1 µM.
As to `COc1cccc2cc(-c3nc4cc5c(cc4n3C)CCN(C[C@H](N)CF)C5=O)n(Cc3oncc3C)c12` [Example 139, (S)-6-(2-amino-3-fluoropropyl)-2-(7-methoxy-1-((4-methylisoxazol-5-yl)methyl)-1H-indol-2-yl)-1-methyl-1,6,7,8-tetrahydro-5H-imidazo[4,5-g]isoquinolin-5-one], the IC50 fell in the range of 0.101 to 0.5 µM.
The result for `COc1cccc2cc(-c3nc4cc5c(cc4n3C)CCN(C[C@H](N)CF)C5=O)n(Cc3cnccn3)c12` [Example 128, (S)-6-(2-amino-3-fluoropropyl)-2-(7-methoxy-1-(pyrazin-2-ylmethyl)-1H-indol-2-yl)-1-methyl-1,6,7,8-tetrahydro-5H-imidazo[4,5-g]isoquinolin-5-one] reads 0.101 to 0.5 µM; that for `Cn1c(-c2cc3cccc(OCc4cocn4)c3n2CC2CC2)nc2cc3c(cc21)CCN(C[C@H](N)CF)C3=O` [Example 189, (S)-6-(2-amino-3-fluoropropyl)-2-(1-(cyclopropylmethyl)-7-(oxazol-4-ylmethoxy)-1H-indol-2-yl)-1-methyl-1,6,7,8-tetrahydro-5H-imidazo[4,5-g]isoquinolin-5-one], 0.101 to 0.5 µM.
Consider `Cc1ccc2c(c1)cc(-c1nc3cc4c(cc3n1C)CCN(C[C@@H](C)N)C4=O)n2CC1CC1` [Example 26, (R)-6-(2-aminopropyl)-2-(1-(cyclopropylmethyl)-5-methyl-1H-indol-2-yl)-1-methyl-1,6,7,8-tetrahydro-5H-imidazo[4,5-g]isoquinolin-5-one], for which the IC50 is above 1 µM.
